The subject of series [1] is primate. The conditions noted are these: Sub-acute repeat dose toxicity; Oral; Gavage/Intubation; dose end: 8 day; group: systemic; systemic / in life observation / clinical signs / emesis.
The subject of series [2] is mouse. The note with it: Sub-acute repeat dose toxicity; Oral; Gavage/Intubation; dose end: 14 day; group: systemic; systemic / clinical chemistry / [other] / [other] + systemic / clinical chemistry / cytochrome p450, nos / cytochrome p450, nos + systemic….
Series [3] concerns rat. The note with it: Sub-acute repeat dose toxicity, sprague dawley, Oral, Gavage/Intubation, dose end: 14 day, group: systemic.
Series [4] concerns primate. The note with it: Sub-acute repeat dose toxicity, Oral, Gavage/Intubation, dose end: 34 day, group: systemic.
Series [5] concerns rat. The note with it: Sub-acute repeat dose toxicity; sprague dawley; Oral; Gavage/Intubation; dose end: 14 day; group: systemic; systemic / clinical chemistry / [other] / [other] + systemic / clinical chemistry / 5' nucleotidase / 5' nucleotidase + systemic / clinical ….
Series [6] has as its system rat. The note with it: Sub-acute repeat dose toxicity, sprague dawley, Oral, Gavage/Intubation, dose end: 34 day, group: systemic.
The subject of series [7] is primate. The note with it: Sub-acute repeat dose toxicity; Oral; Gavage/Intubation; dose end: 4 day; group: systemic; systemic / clinical chemistry / chloride / chlorine + systemic / clinical chemistry / cholesterol / cholesterol + systemic / clinical ….
Series [8] concerns mouse. The conditions noted are these: Sub-acute repeat dose toxicity; Oral; Gavage/Intubation; dose end: 14 day; group: systemic; systemic / clinical chemistry / [other] / [other] + systemic / clinical chemistry / cytochrome p450, nos / cytochrome p450, nos + systemic…. The source holds these as a separate data set.
Series [9] concerns mouse. The conditions noted are these: Sub-acute repeat dose toxicity, Oral, Gavage/Intubation, dose end: 14 day, group: systemic.
Series [10] deals with rat. The conditions noted are these: Sub-acute repeat dose toxicity; sprague dawley; Oral; Gavage/Intubation; dose end: 8 day; group: systemic; systemic / clinical chemistry / potassium / potassium + systemic / in life observation / body weight / body weight + systemic / clinical ….
Series [11] concerns rat. The conditions noted are these: Combined chronic toxicity/carcinogenicity; sprague dawley; Inhalation; Whole-Body; dose end: 24 month; group: systemic; systemic / clinical chemistry / alanine aminotransferase (alt/sgpt) / alanine aminotransferase (alt/sgpt) + systemic / clinical chemistry / ….
Series [12] deals with rat. The conditions noted are these: Subchronic oral toxicity in rodents; sprague dawley; Inhalation; Whole-Body; dose end: 3 month; group: systemic; systemic / clinical chemistry / gamma glutamyl transferase (ggt) / gamma glutamyl transferase (ggt) + systemic / clinical chemistry / ….
Series [13] has as its system dog. The conditions noted are these: Sub-acute repeat dose toxicity; beagle; Oral; Capsule; dose end: 1 month; group: systemic; systemic / in life observation / clinical signs / defecation (diarrhea) + systemic / in life observation / clinical signs / emesis + ….
Series [14] concerns rat. The note with it: Sub-acute repeat dose toxicity, sprague dawley, Oral, Gavage/Intubation, dose end: 28 day, group: systemic.
The mark [15] stands for this setting: systemic / clinical chemistry / cholesterol / cholesterol + systemic / clinical chemistry / globulins / globulins + systemic / clinical ….
The mark [16] stands for this setting: systemic / organ weight / liver / absolute + systemic / clinical chemistry / hepatic mixed function oxidase (mfo) assay / hepatic mixed ….
[17] abbreviates: systemic / organ weight / liver / absolute + systemic / in life observation / clinical signs / arrhythmia + systemic / in life observation….
[18] abbreviates: systemic / clinical chemistry / hepatic mixed function oxidase (mfo) assay / hepatic mixed function oxidase (mfo) assay.
Where [19] appears, read: systemic / hematology / erythrocyte (rbc) count differential / erythrocyte (rbc) + systemic / in life observation / mortality / mortality + ….
[20] abbreviates: systemic / clinical chemistry / [other] / [other] + systemic / clinical chemistry / cytochrome p450, nos / cytochrome p450, nos + systemic….
Where [21] appears, read: systemic / organ weight / liver / relative to body weight.
Where [22] appears, read: systemic / clinical chemistry / glucose / glucose + systemic / clinical chemistry / cholesterol / cholesterol.
Where [23] appears, read: systemic / clinical chemistry / glucose / glucose + systemic / hematology / platelet / platelet + systemic / pathology microscopic / liver….

The structures appear in SMILES notation.

`NC(=O)N(O)Cc1ccc2c(c1)CCCN2CCCc1ccccc1`: the LEL in series [1] was determined as 150 mg/kg/day; in series [2], 200 mg/kg/day; in [3] (systemic / clinical chemistry / triglycerides / triglycerides + systemic / organ weight / liver / relative to body weight + systemic / …), 32 mg/kg/day; in series [4] (setting [16]) it was 5 mg/kg/day; in series [5], 200 mg/kg/day; in series [6] (setting [18]), 10 mg/kg/day. The LEL came out at 300 mg/kg/day in [7], 200 mg/kg/day in series [8], 50 mg/kg/day in [9] (setting [21]) and 400 mg/kg/day in [10]. Also, the lowest-observed-adverse-effect level (LOAEL) (commonly the lowest tested level that showed an adverse finding) in [1] is above 150 mg/kg/day; in [2], above 200 mg/kg/day; in series [3] (setting [15]), above 100 mg/kg/day; in [4] (setting [17]) it was above 100 mg/kg/day; in series [5] it was above 200 mg/kg/day; in series [6] (setting [19]) it was above 200 mg/kg/day. Besides, the lowest observed adverse effect level (LOAEL) in series [7] is above 300 mg/kg/day; in [8] it was above 200 mg/kg/day; in series [9] (setting [20]) it was above 200 mg/kg/day; in [10] it was above 400 mg/kg/day. For the same compound, the NEL was below 150 mg/kg/day in series [1]; below 200 mg/kg/day in series [2]; 10 mg/kg/day in [3] (setting [15]); below 5 mg/kg/day in [4] (setting [16]); below 200 mg/kg/day in series [5]; below 10 mg/kg/day in [6] (setting [18]). The NEL is below 300 mg/kg/day in [7], below 200 mg/kg/day in series [8], below 50 mg/kg/day in [9] (setting [21]) and below 400 mg/kg/day in series [10]. The no observed adverse effect level (NOAEL) (usually the highest dose or exposure tested at which no adverse effect was seen) is at least 150 mg/kg/day in series [1]; at least 200 mg/kg/day in series [2]; at least 100 mg/kg/day in [3] (setting [15]); at least 100 mg/kg/day in [4] (setting [17]); at least 200 mg/kg/day in series [5]; at least 200 mg/kg/day in series [6] (setting [19]). In addition, the no observed adverse effect level (NOAEL) was at least 300 mg/kg/day in series [7], at least 200 mg/kg/day in series [8], at least 200 mg/kg/day in [9] (setting [20]) and at least 400 mg/kg/day in [10].

With `C=CN1CCCC1=O` [N-Vinyl-2-pyrrolidone], in [11], the LEL was found to be 5 ppm, the lowest-observed-adverse-effect level (LOAEL) was above 20 ppm, the NEL is below 5 ppm and the no observed adverse effect level (NOAEL) was at least 20 ppm. Also, in series [12], the LEL came to 45 ppm, the lowest observed adverse effect level (LOAEL) is above 45 ppm, the NEL is below 45 ppm and the NOAEL is at least 45 ppm.

Take `COc1cc(C(C)C)c2c(c1)S(=O)(=O)N(COc1cc(=O)n3cccc(OCCN4CCCCC4)c3n1)C2=O`: in series [13], the LEL is 10 mg/kg/day, the LOAEL is above 100 mg/kg/day, the NEL was below 10 mg/kg/day and the NOAEL was at least 100 mg/kg/day. Besides, in series [14] (setting [22]), the LEL was 30 mg/kg/day and the NEL was below 30 mg/kg/day. In series [14] (setting [23]), the LOAEL was found to be 100 mg/kg/day and the no-observed-adverse-effect level (NOAEL) stood at 30 mg/kg/day.
